Measured values: US7745693B2, “Inhibitors of plant peptide deformylase for use as broad-spectrum herbicides and methods for identifying the same” (University of Kentucky Research Foundation, priority 2007, dated 2010)

Assays:
[1] = test system: Pea plants (Pisum sativum L. cv. Laxton's Progress No. 9); assay: Assay for in vivo herbicidal activity on pea plants; settings: ten-day old pea plants
Method: Pea plants (Pisum sativum L. cv. Laxton's Progress No. 9) were sown in 46×62 cm flats of MetroMix 360 and grown for 10-12 days in a greenhouse (minimum night temperature of 30° C.) as described by Wang, P., Royer, M., and Houtz, R. L. Affinity purification of ribulose-1,5-bisphosphate carboxylase/oxygenase large subunit epsilon N-methyltransferase. Protein Expression and Purification 6:528-526 (1995). Ten-day old pea plants were treated with approximately 100-200 μl actinonin (final concentration. 2.5 mg/ml per plant in 0.1% Tween-20). Control plants were treated with 0.1% Tween-20. […] The changes were clearly visible within 48 hours after treatment with actinonin.

[2] = molecular target: T1, AtDEF2 (Arabidopsis thaliana, UniProt Q9FUZ2); assay: Continuous spectrophotometric peptide deformylase activity and inhibition assay (formyl-Met-Leu-p-nitroanilide, coupled with Aeromonas proteolytica aminopeptidase); assay type: biochemical
T1 construct: the entire putative protein and the ChloroP-predicted chloroplast-length protein; initiator Met from the NdeI site (N); made in house; host or cells: E. coli BL21(DE3)pLysS, pET23b, clone #4-D
T1 sequence (Q9FUZ2 57-273): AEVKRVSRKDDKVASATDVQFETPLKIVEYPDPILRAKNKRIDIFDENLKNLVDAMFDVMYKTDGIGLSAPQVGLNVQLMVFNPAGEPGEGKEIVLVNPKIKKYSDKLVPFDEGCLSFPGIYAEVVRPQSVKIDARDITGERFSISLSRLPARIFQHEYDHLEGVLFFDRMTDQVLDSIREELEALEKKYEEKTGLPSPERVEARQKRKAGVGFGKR
Method: Experiments were designed to detect deformylase activity from recombinant AtDEF2 using the assay as described by Wei and Pei, Analytical Biochemistry 250:29-34 (1997). Continuous spectrophotometric assays of peptide deformylase activity were carried out at a temperature of 20° C. Assays were performed in polystyrene or quartz cuvettes containing 50 mM Tris-HCl, pH 8.2, 1 mM ethylene diamine bis(β-aminoethyl ether-N,N′-tetraacetic acid ([…]), 5 mM MgCl2, 200 μM NiSO4 0-200 μM peptide substrate and 1.0 units of Aeromonas proteolytica aminopeptidase. […] The reactions were monitored continuously at 405 nm in a Shimadzu UV-201 PC scanning spectrophotometer, and the initial rates were calculated from the early part of the reaction progression curves (<60 s). Spectrophotometric detection and quantitation was performed of p-nitroaniline released from formyl-Met-Leu-p-nitroanilide substrate (BACHEM Cat. No. L2030; King of Prussia, Pa. 19406 USA) following sequential action of AtDEF2 and Aeromonas proteolytica aminopeptidase (Sigma Cat. No. A8200; St. Louis, Mo., 63118 USA).

What does the source list for `CCCCC[C@H](CC(=O)NO)C(=O)N[C@H](C(=O)N1CCC[C@H]1CO)C(C)C` [actinonin]?
time after treatment at which changes were clearly visible ([1]; 2.5 mg/ml actinonin in 0.1% Tween-20): ≤ 48 h; observable alterations in plant growth ([1]; approximately 100-200 μl actinonin, 2.5 mg/ml per plant in 0.1% Tween-20, foliar application): stunting and yellowing of pea plants; inhibition of deformylase activity after preincubation ([2]; 43.5 μg AtDEF2 preincubated 3 minutes with 3.2 μM actinonin, assay then initiated with substrate): Nearly complete inhibition; inhibition of AtDEF2 activity (actinonin included in assay, no preincubation) ([2]; within 60 seconds, FIG. 8, 20° C.): significantly inhibited
